Data from patent publication US20070197591A1, “USE OF PALIPERIDONE FOR THE TREATMENT OF A MENTAL DISORDER IN A PSYCHIATRIC PATIENT WITH REDUCED HEPATIC FUNCTION” (priority 2005, published 2007).

Key:
[1] = clinical; parameters: species or system human; conditions: human, in vivo
Source text: Objectives: to investigate the metabolic pathways of paliperidone and excretion of paliperidone and its metabolites in healthy adult male subjects, both CYP2D6 poor and extensive metabolizers, after administration of a single 1-mg oral dose of ^14C-paliperidone. In addition, to evaluate the safety and tolerability of paliperidone, as well as the relationship between genotypes (CYP2D6, CYP3A4, CYP3A5, UGT1A1, and UGT1A6) and exposure to paliperidone and its metabolites.
Methodology: Single-center, single-dose open-label study of the absorption, metabolism, and excretion (AME) of paliperidone in healthy men (3 extensive and 3 poor metabolizers based on CPY2D6 phenotype). […] Each subject received a single oral dose of ^14C-paliperidone with total radioactivity below […] (16 μCi). Blood samples for plasma pharmacokinetic profile were obtained immediately before study drug administration and 0.5, 1, 1.5, 3, 6, 12, 16, 36, 48, 72, 96, 120, 144 and 168 hours postdose. Blood samples were obtained 2, 4, 8, and 24 hours postdose for determination of ^14C in whole blood. Samples for determination of serum creatinine were obtained 2, 4, 8, and 24 hours postdose. Urine was collected immediately prior to drug administration and from 0-4, 4-8, 8-12, 12-16, 16-24, 24-36, 36-48, 48-72, 96-120, 120-144, and 144-168 hours after study drug administration. Fecal samples were colleted per each stool, once before study drug administration and in the period from 0-168 hours after study drug administration. Collections of urine and feces (per 24 hours) were to continue beyond 168 hours, to a maximum of 336 hours (Day 15) for subjects who excrete radioactivity slowly (2 latest 24-hour urine collections each >2% of total radioactive dose) or have <7 feces stool samples over the 0 to 168-hour period. ^14C radioactivity was measured in plasma, urine, and feces. Aliquots of the 0- through 24-hour urine collections were analyzed for cretinine. Plasma concentrations of paliperidone and risperidone were determined by means of a validated LC-MS/MS method. The ^14C-labeled moiety in plasma and urine was determined by liquid scintillation counting. For all plasma samples, the lower limits of quantification for paliperidone and risperidone were 0.100 ng/mL. For all plasma and urine samples the lower limits of quantification for ^14C-palieridone was 72 dpm/mL (=2.0 n g-eq/mL).
Number of Subjects (Planned and Analyzed): Six healthy men, 3 extensive and 3 poor metabolizers based on CYP2D6 phenotype were to participate in the study. Five subjects, 3 extensive and 2 poor metabolizers, received a single dose of ^14C-paliperidone, completed the study (i.e., completed all assessments through Day 8) and were considered valuable for safety (the Safety Analysis Set), as well as for pharmacokinetics.
Test Product, Dose and Mode of Administration Batch No.: Single oral 0.988-mg dose of ^14C-paliperidone, oral solution (aqueous formulation at a final concentration of 0.0984 mg/mL). Batch No.: unlabeled paliperidone oral solution: ZR076477EIA031 (manufacturing date: 23 Apr. 2003, retest date: 23 Oct. 2004): ^14C-paliperidone: 1763 (expiration date: not applicable)
Criteria for Evaluation: Pharmacokinetics: Plasma paliperidone. ^14C radioactivity and metabolite profiles were determined. Plasma Cmax, tmax, AUClast, AUC24, AUC∞, λZ, t1/2term, CL/F of ^14C and paliperidone were estimated by non-compartmental analysis. Based on the individual urine excretion data and on the serum creatinine concentrations, Ae, Ae, % dose, CLR, CLR,24h and CLer and paliperidone and CLGFR, and CLact of paliperidone were estimated. The excretion half-life of ^14C in urine was also estimated based on excretion rate-time profiles.
Statistical Methods: Pharmacokinetics: Plasma concentrations of ^14C and paliperdone as well as estimates for pharmacokinetic parameters were listed and graphically presented, and the excretion analysis of total radioactivity in plasma, urine and feces were summarized. […]

[2] = Safety and tolerability, single oral 1-mg ^14C-paliperidone in healthy men; type: in vivo, human
Procedure: Safety: Evaluation was based on the incidence, type, and severity of all treatment-emergent adverse events, and on change from screening to the end of the study in clinical laboratory results, vital sign measurements, and postural changes in blood pressure and heart rate.
Safety: The number of subjects with adverse events was summarized. Summary statistics were calculated for clinical laboratory values. Other safety data were listed by individual sect. Changes in blood pressure and heart rate measurements were also presented graphically.

[3] = Plasma protein binding / unbound fraction of paliperidone and its enantiomers; type: in vitro ADME, human
Source text: Objectives: The primary objective of this study was to investigate the single-dose pharmacokinetics of immediate-release (IR) paliperidone, after oral administration, in subjects having moderate hepatic impairment (“hepatically-impaired subjects”) compared with subjects having normal hepatic function (“healthy subjects”). The secondary objective was to document the plasma protein binding and disposition of the enantiomers of paliperidone. In addition, the tolerability and safety profile of IR paliperidone was compared between hepatically impaired subjects and healthy subjects. Criteria for Evaluation: Pharmacokinetics: Plasma and urine concentrations of the paliperidone enantiomers (+) R078543 and (−) R078544 were determined using an LC-MS/MS method. Concentrations of paliperidone were calculated as the sum of the enantiomer concentrations. In addition, serum and urine concentrations of creatinine were determined for the calculation of CLCR. The protein binding and unbound fraction was determined for the 2 paliperidone enantiomers. The unbound fraction for paliperidone was calculated.

[4] = Hepatically-Impaired Subjects (n = 10; paliperidone n = 8)

| Molecule | AUC∞ [1] [ng-eq.h/mL] | deaths, serious adverse events ([2]; 5 healthy men, single oral 1-mg dose) | changes in laboratory test results ([2]; in vivo, po) | overall safety and tolerability ([2]; in vivo, po) | subjects with treatment-emergent adverse events ([2]; in vivo, po) | Unbound Fraction ([3]; Healthy Subjects (n = 10)) | Unbound Fraction [3, 4] |
| --- | --- | --- | --- | --- | --- | --- | --- |
| ^14C-paliperidone | 175 | no deaths, no serious adverse events | no clinically relevant changes | safe and well tolerated | Two of the 5 subjects | – | – |
| Cc1nc2n(c(=O)c1CCN1CCC(c3noc4cc(F)ccc34)CC1)CCCC2O (single isomer, unassigned; (-)) [(−) R078544] | – | – | – | – | – | 0.385 ± 0.0416 | 0.457 ± 0.0504 |
| Cc1nc2n(c(=O)c1CCN1CCC(c3noc4cc(F)ccc34)CC1)CCC[C@H]2O [(+) R078543] | – | – | – | – | – | 0.215 ± 0.0469 | 0.306 ± 0.0687 |
